{"source": "paper PMC5458211", "about": "“Mitochondrial VDAC1-based peptides: Attacking oncogenic properties in glioblastoma” (Oncotarget, 2017)", "key": {"[1]": {"system": "U-87MG intracranial xenograft tumors", "test": "U-87MG intracranial-orthotopic xenograft, tumor volume by MRI", "assay_type": "in vivo, human U-87MG in nude mice", "protocol": "(§1) B. U-87MG cells (2×10^5) were incubated for 12 h with the indicated concentrations of DMSO, Retro-Tf-D-LP4 peptide (Pep), or Retro-Tf-D-LP4 encapsulated in PLGA nanoparticles (PLGA-Pep). Samples of Retro-Tf-D-LP4 encapsulated in PLGA nanoparticles were centrifuged (15000g, 5 min) to separate the supernatant (Sup), containing free peptide, and the pellet, containing encapsulated Retro-Tf-D-LP4 peptide. Cell death was analyzed by PI staining and FACS analysis. C. Graphical representation of the orthotopic animal experiment. D. MRI imaging of brains 29 days post-intravenal treatment start with DMSO (1.05%), Retro-Tf-D-LP4 (10 mg/kg) encapsulated in PLGA nanoparticles or Tf-D-Retro-LP4 peptide (10 mg/Kg), as described in Materials and Methods available online in Supplemental information. E. Calculated tumor volumes after 20 (dark grey bars) and 29 (light grey bars) days post-treatment start. Results = mean ± SE (n = 6) (* p<0.05, *** p<0.001). F. Kaplan-Meier survival curves showing statistically significant differences in survival curves between the PBS/DMSO and Retro-Tf-D-LP4 treated mice. Cumulative Kaplan-Meier survival curves of control mice (red line), Retro-Tf-D-LP4 peptide (10mg/kg) encapsulated in PGLA nanoparticles (black line, ** p=0.006) or Retro-Tf-D-LP4 peptide (10 mg/kg, pink line, *** p=0.0003). The arrow indicates the end of the peptide treatment (day 46).\nFor the intracranial-orthotopic xenograft mouse model, U-87MG cells (8×10^4) were engrafted into a nude mouse brain using a stereotactic device. Forty eight hours after surgery, mice were randomized into three groups (6 animals/group) and treated every third day with DMSO (1.44%), Retro-Tf-D-LP4 (10mg/Kg) or Retro-Tf-D-LP4 (10mg/Kg) encapsulated by PLGA. Mice were subjected to MRI, sacrificed; brains were excised and processed for IHC. Tumor volume was analyzed using VivoQuant 2.10 software.\nPLGA encapsulation of the VDAC1-based minutes using an UltraMicroPump III (World Precision peptide Retro-Tf-D-LP4 Instruments, Sarasota, FL). After infusion, the needle was left in place for 1 minute before slow withdrawal. The burr […]\n(§2) 100% DMSO and then diluted 20-fold with sterile DDW into three groups (6 animals/group) and treated every to reach a concentration of 25 mg/ml in a final DMSO third day with DMSO (1.44%), Retro-Tf-D-LP4 (10 concentration of 5%. PLGA (50 mg) was dissolved in mg/kg) or Retro-Tf-D-LP4 (10 mg/kg) encapsulated by acetone (1 ml). […] Tumor volume was analyzed using VivoQuant 2.10 10 ml of aqueous solution containing 1% PVA (w/v). […]\nof the experiments, the mice were sacrificed, tumors were IHC of tumor tissue sections excised and ex vivo weight was determined. […]"}, "U-87MG cells": {"system": "U-87MG cells", "test": "Cell death in U-87MG by free and PLGA-encapsulated peptide", "assay_type": "cell-based, human", "conditions": "12 h, PI staining and FACS; Fig 7B", "protocol": "B. U-87MG cells (2×10^5) were incubated for 12 h with the indicated concentrations of DMSO, Retro-Tf-D-LP4 peptide (Pep), or Retro-Tf-D-LP4 encapsulated in PLGA nanoparticles (PLGA-Pep). Samples of Retro-Tf-D-LP4 encapsulated in PLGA nanoparticles were centrifuged (15000g, 5 min) to separate the supernatant (Sup), containing free peptide, and the pellet, containing encapsulated Retro-Tf-D-LP4 peptide. Cell death was analyzed by PI staining and FACS analysis. C. Graphical representation of the orthotopic animal experiment. […] E. Calculated tumor volumes after 20 (dark grey bars) and 29 (light grey bars) days post-treatment start. […]\nas §2\n(Calbiochem, UK). […] Thirteen days post-inoculation, using various primary antibodies (sources and dilutions tumor volume was measured and calculated (100-130 as detailed in supplementary Table 2), followed by mm3) and mice were randomized into three groups (5 the appropriate HRP-conjugated secondary antibodies mice/group). […]"}, "[2]": {"test": "Blood-brain barrier crossing in the intracranial xenograft model", "assay_type": "in vivo, mouse", "conditions": "i.v.; concluded from intracranial tumor model", "protocol": "as §1, with “Cumulative Kaplan-Meier survival curves of control mice (red line), Retro-Tf-D-LP4 peptide (10mg/kg) encapsulated in PGLA nanoparticles (black line, ** p=0.006) or Retro-Tf-D-LP4 peptide (10 mg/kg, pink line, *** p=0.0003). The arrow indicates the end of the peptide treatment (day 46).” left out\n(§3) For the intracranial-orthotopic xenograft mouse model, U-87MG cells (8×10^4) were engrafted into a nude mouse brain using a stereotactic device. […] Tumor volume was analyzed using VivoQuant 2.10 software."}, "[3]": {"system": "mice bearing U-87MG intracranial xenografts", "test": "Survival (Kaplan-Meier) in U-87MG intracranial xenograft", "assay_type": "in vivo, human U-87MG in nude mice", "conditions": "10 mg/kg i.v., treatment ended day 46 post-inoculation", "protocol": "as §1, with “Cumulative Kaplan-Meier survival curves of control mice (red line), Retro-Tf-D-LP4 peptide (10mg/kg) encapsulated in PGLA nanoparticles (black line, ** p=0.006) or Retro-Tf-D-LP4 peptide (10 mg/kg, pink line, *** p=0.0003). The arrow indicates the end of the peptide treatment (day 46).” left out\nas §3"}}}
{"smiles": "CC[C@H](C)[C@H](NC(=O)[C@H](Cc1ccc(O)cc1)NC(=O)[C@@H]1CCCN1C(=O)[C@H](CCCNC(=N)N)NC(=O)[C@H](Cc1c[nH]cn1)NC(=O)[C@H](CO)NC(=O)[C@H](Cc1c[nH]c2ccccc12)NC(=O)[C@@H](NC(=O)[C@H](Cc1c[nH]c2ccccc12)NC(=O)[C@H](CCC(=O)O)NC(=O)[C@@H](CCCCN)NC(=O)[C@@H](CCCCN)NC(=O)[C@@H](CC(C)C)NC(=O)[C@@H](CCC(=O)O)NC(=O)[C@H](NC(=O)[C@@H](C)NC(=O)[C@H](NC(=O)[C@@H](CC(N)=O)NC(=O)[C@@H](CC(C)C)NC(=O)[C@@H](C)NC(=O)[C@@H](Cc1c[nH]c2ccccc12)NC(=O)[C@H](NC(=O)[C@@H](C)NC(=O)CNC(=O)[C@@H](CC(N)=O)NC(=O)[C@@H](CO)NC(=O)[C@@H](CC(N)=O)NC(=O)[C@H](CCCCN)NC(=O)[C@H](Cc1c[nH]c2ccccc12)NC(=O)[C@@H](NC(=O)[C@H](Cc1c[nH]c2ccccc12)NC(=O)[C@@H](N)CCCCN)[C@@H](C)O)[C@H](C)O)C(C)C)[C@H](C)O)[C@@H](C)O)C(=O)N[C@@H](C)C(=O)N[C@@H](Cc1c[nH]cn1)C(=O)O", "note": "[Retro-Tf-D-LP4]", "values": [{"measurement": "decrease in orthotopic xenograft tumor volume, day 20", "setting": "[1]; 10 mg/kg i.v., every third day, 20 days after start of treatment, MRI, n = 6", "result": 60, "unit": "%"}, {"measurement": "decrease in orthotopic xenograft tumor volume, day 29", "setting": "[1]; 10 mg/kg i.v., every third day, 29 days after start of treatment, MRI, n = 6", "result": 90, "unit": "%"}, {"measurement": "free vs PLGA-encapsulated peptide, effectiveness", "setting": "[1]; intracranial model, tumor size and survival", "result": "more effective both in reducing tumor size and in prolonging mice survival"}, {"measurement": "reduction of tumor volume, maximum (Discussion)", "setting": "[1]; intracranial-orthotopic xenograft, i.v., free peptide", "result": "up to 90%"}, {"measurement": "cell death, U-87MG", "setting": "U-87MG cells", "result": "induces cell death"}, {"measurement": "crossing of the blood-brain barrier / reaching the brain", "setting": "[2]", "result": "able to cross the blood-brain barrier in vivo"}, {"measurement": "prolongation of survival relative to untreated mice", "setting": "[3]", "result": "over 60 days"}, {"measurement": "mice with prolonged survival", "setting": "[3]; followed another 46 days, untreated all died by day 32", "result": 40, "unit": "%"}]}
